Source: ChEMBL document CHEMBL5370626, “Targeting the Subpocket Enables the Discovery of Thiadiazole-Pyridazine Derivatives as Glutaminase C Inhibitors” (ACS Med Chem Lett, 2023)
Activity calls are given as the source filed them. The calls are words filed in the database; no cut-off is given here.

Legend:
[1] = biological target: T1, Glutaminase kidney isoform, mitochondrial (Homo sapiens) (UniProt O94925); assay: Inhibition of GAC (unknown origin)
T1 sequence (whole entry): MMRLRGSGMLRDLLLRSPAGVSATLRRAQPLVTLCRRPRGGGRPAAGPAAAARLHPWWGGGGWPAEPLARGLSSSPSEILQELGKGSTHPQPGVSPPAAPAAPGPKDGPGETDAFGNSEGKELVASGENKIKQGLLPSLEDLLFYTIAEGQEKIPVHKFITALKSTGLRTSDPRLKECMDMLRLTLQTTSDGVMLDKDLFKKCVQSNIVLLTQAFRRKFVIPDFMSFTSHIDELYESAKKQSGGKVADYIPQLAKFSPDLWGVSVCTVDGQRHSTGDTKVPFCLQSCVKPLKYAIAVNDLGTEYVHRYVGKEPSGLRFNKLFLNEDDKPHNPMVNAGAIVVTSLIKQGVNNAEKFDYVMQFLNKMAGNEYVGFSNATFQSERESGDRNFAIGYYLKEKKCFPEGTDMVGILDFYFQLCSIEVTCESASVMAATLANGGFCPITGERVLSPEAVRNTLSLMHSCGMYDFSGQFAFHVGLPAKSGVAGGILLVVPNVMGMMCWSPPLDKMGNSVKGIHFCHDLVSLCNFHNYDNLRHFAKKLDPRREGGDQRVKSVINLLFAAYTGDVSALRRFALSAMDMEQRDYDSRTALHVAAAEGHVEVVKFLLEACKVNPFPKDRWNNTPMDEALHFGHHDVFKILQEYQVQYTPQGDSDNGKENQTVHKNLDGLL

[2] = Oral bioavailability in Sprague-Dawley rat plasma at 100 mg/kg measured up to 48 hrs by LC-MS/MS analysis; format: ADME, organism-based
[3] = Volume of distribution in Sprague-Dawley rat plasma at 10 mg/kg, iv measured up to 48 hrs by LC-MS/MS analysis; format: ADME, organism-based
[4] = (§1) Inhibition of human recombinant GAC K320A mutant (73 to 598 residues ) expressed in Escherichia coli BL21 (DE3) cells incubated for 10 mins by fluorometric assay
Homo sapiens = species: Homo sapiens; assay: as §1
A549 [5] = assay: Inhibition of colony formation in human A549 cells assessed as reduction of colony number measured after 4 days by crystal violet staining-based colony formation assay; format: functional, cell-based; conditions: dose 10-1000 nM, time 4.0 day
A549 [6] = assay: Inhibition of colony formation in human A549 cells assessed as reduction of colony number at 1 uM measured after 4 days by crystal violet staining-based colony formation assay relative to control; format: functional; conditions: A549, 96 h, time 4 day
[7] = biological target: T1, Glutaminase kidney isoform, mitochondrial (Homo sapiens); assay: Inhibition of human GAC in A549 cells assessed as reduction in glutamate level at 100 to 1000 nM incubated for 16 hrs by colorimetric assay; format: cell-based; conditions: dose 100-1000 nM
[8] = biological target: T1, Glutaminase kidney isoform, mitochondrial (Homo sapiens); assay: Inhibition of human GAC in A549 cells assessed as induction of ROS level incubated for 16 hrs by DCFH-DA staining based flow cytometric analysis; format: cell-based; conditions: dose 100-1000 nM
[9] = Half life in Sprague-Dawley rat plasma at 100 mg/kg, po measured up to 48 hrs by LC-MS/MS analysis; format: ADME, organism-based
[10] = Half life in Sprague-Dawley rat plasma at 10 mg/kg, iv measured up to 48 hrs by LC-MS/MS analysis; format: ADME, organism-based
[11] = Tmax in Sprague-Dawley rat plasma at 100 mg/kg, po measured up to 48 hrs by LC-MS/MS analysis; format: ADME, organism-based
[12] = Cmax in Sprague-Dawley rat plasma at 10 mg/kg, iv measured up to 48 hrs by LC-MS/MS analysis; format: ADME, organism-based; design: dose 10 mg/kg, time < 48 hrs, route iv
[13] = AUC(0 to t) in Sprague-Dawley rat plasma at 100 mg/kg, po measured up to 48 hrs by LC-MS/MS analysis; format: ADME, organism-based; design: dose 100 mg/kg, time < 48 hrs, route po
[14] = AUC(0 to t) in Sprague-Dawley rat plasma at 10 mg/kg, iv measured up to 48 hrs by LC-MS/MS analysis; format: ADME, organism-based; design: dose 10 mg/kg, time < 48 hrs, route iv
[15] = AUC(0 to infinity) in Sprague-Dawley rat plasma at 100 mg/kg, po measured up to 48 hrs by LC-MS/MS analysis; format: ADME, organism-based; design: dose 100 mg/kg, time < 48 hrs, route po
[16] = AUC(0 to infinity) in Sprague-Dawley rat plasma at 10 mg/kg, iv measured up to 48 hrs by LC-MS/MS analysis; format: ADME, organism-based; design: dose 10 mg/kg, time < 48 hrs, route iv
[17] = MRT(0 to t) in Sprague-Dawley rat plasma at 10 mg/kg, iv measured up to 48 hrs by LC-MS/MS analysis; format: ADME, organism-based
[18] = MRT(0 to infinity) in Sprague-Dawley rat plasma at 100 mg/kg, po measured up to 48 hrs by LC-MS/MS analysis; format: ADME, organism-based
A549 [19] = assay: Antitumor activity against human A549 cells xenografted in Balb/c nude mouse assessed as tumor growth inhibition at 100 mg/kg, po administered once daily 24 days relative to control; format: functional; conditions: A549, 576 h, time 24 day, read-out: TGI
A549 [20] = assay: Antitumor activity against human A549 cells xenografted in Balb/c nude mouse assessed as tumor growth inhibition at 150 mg/kg, po administered once daily 24 days relative to control; format: functional, organism-based; conditions: time 24.0 day
[21] = biological target: Voltage-gated inwardly rectifying potassium channel KCNH2 (Homo sapiens, UniProt Q12809); assay: Inhibition of human ERG expressed in HEK293 cells at -80 mV holding potential by whole cell patch-clamp assay; format: toxicity, cell-based
[22] = biological target: Voltage-dependent L-type calcium channel subunit alpha-1C (Homo sapiens, UniProt Q13936); assay: Inhibition of Cav1.2 channel (unknown origin) incubated for 30 mins by Fluo-4 staining based FLIPR assay; format: toxicity; conditions: 0.5 h
[23] = biological target: Sodium channel protein type 5 subunit alpha (Homo sapiens, UniProt Q14524); assay: Inhibition of human Nav1.5 channel stably expressed in CHO cells at -120 mV holding potential by whole cell patch-clamp assay; format: toxicity, cell-based
[24] = Mutagenicity in Salmonella typhimurium TA1537 measured at 1.5 to 1000 ug per well for 48 to 72 hrs by mini-Ames test; format: toxicity, Salmonella enterica subsp. enterica serovar Typhimurium; conditions: in vivo; dose lower 1.5 µg, time lower 48 hrs, dose upper 1000 µg, time upper 72 hrs
[25] = Mutagenicity in Escherichia coli WP2 uvrA measured at 1.5 to 1000 ug per well for 48 to 72 hrs by mini-Ames test; format: toxicity; conditions: in vivo; dose lower 1.5 µg, time lower 48 hrs, dose upper 1000 µg, time upper 72 hrs
[26] = Mutagenicity in Salmonella typhimurium TA98 measured at 1.5 to 1000 ug per well for 48 to 72 hrs in presence of S9 liver fraction by mini-Ames test; format: toxicity, subcellular, Salmonella enterica subsp. enterica serovar Typhimurium; conditions: dose lower 1.5 µg, time lower 48 hrs, dose upper 1000 µg, time upper 72 hrs
[27] = Mutagenicity in Salmonella typhimurium TA100 measured at 1.5 to 1000 ug per well for 48 to 72 hrs in presence of S9 liver fraction by mini-Ames test; format: toxicity, subcellular, Salmonella enterica subsp. enterica serovar Typhimurium; conditions: dose lower 1.5 µg, time lower 48 hrs, dose upper 1000 µg, time upper 72 hrs
[28] = Mutagenicity in Salmonella typhimurium TA1535 measured at 1.5 to 1000 ug per well for 48 to 72 hrs in presence of S9 liver fraction by mini-Ames test; format: toxicity, subcellular, Salmonella enterica subsp. enterica serovar Typhimurium; conditions: dose lower 1.5 µg, time lower 48 hrs, dose upper 1000 µg, time upper 72 hrs
[29] = Mutagenicity in Escherichia coli WP2 uvrA measured at 1.5 to 1000 ug per well for 48 to 72 hrs in presence of S9 liver fraction by mini-Ames test; format: toxicity, subcellular; conditions: dose lower 1.5 µg, time lower 48 hrs, dose upper 1000 µg, time upper 72 hrs

Sodium channel protein type 5 subunit alpha, sequence (Q14524 whole entry): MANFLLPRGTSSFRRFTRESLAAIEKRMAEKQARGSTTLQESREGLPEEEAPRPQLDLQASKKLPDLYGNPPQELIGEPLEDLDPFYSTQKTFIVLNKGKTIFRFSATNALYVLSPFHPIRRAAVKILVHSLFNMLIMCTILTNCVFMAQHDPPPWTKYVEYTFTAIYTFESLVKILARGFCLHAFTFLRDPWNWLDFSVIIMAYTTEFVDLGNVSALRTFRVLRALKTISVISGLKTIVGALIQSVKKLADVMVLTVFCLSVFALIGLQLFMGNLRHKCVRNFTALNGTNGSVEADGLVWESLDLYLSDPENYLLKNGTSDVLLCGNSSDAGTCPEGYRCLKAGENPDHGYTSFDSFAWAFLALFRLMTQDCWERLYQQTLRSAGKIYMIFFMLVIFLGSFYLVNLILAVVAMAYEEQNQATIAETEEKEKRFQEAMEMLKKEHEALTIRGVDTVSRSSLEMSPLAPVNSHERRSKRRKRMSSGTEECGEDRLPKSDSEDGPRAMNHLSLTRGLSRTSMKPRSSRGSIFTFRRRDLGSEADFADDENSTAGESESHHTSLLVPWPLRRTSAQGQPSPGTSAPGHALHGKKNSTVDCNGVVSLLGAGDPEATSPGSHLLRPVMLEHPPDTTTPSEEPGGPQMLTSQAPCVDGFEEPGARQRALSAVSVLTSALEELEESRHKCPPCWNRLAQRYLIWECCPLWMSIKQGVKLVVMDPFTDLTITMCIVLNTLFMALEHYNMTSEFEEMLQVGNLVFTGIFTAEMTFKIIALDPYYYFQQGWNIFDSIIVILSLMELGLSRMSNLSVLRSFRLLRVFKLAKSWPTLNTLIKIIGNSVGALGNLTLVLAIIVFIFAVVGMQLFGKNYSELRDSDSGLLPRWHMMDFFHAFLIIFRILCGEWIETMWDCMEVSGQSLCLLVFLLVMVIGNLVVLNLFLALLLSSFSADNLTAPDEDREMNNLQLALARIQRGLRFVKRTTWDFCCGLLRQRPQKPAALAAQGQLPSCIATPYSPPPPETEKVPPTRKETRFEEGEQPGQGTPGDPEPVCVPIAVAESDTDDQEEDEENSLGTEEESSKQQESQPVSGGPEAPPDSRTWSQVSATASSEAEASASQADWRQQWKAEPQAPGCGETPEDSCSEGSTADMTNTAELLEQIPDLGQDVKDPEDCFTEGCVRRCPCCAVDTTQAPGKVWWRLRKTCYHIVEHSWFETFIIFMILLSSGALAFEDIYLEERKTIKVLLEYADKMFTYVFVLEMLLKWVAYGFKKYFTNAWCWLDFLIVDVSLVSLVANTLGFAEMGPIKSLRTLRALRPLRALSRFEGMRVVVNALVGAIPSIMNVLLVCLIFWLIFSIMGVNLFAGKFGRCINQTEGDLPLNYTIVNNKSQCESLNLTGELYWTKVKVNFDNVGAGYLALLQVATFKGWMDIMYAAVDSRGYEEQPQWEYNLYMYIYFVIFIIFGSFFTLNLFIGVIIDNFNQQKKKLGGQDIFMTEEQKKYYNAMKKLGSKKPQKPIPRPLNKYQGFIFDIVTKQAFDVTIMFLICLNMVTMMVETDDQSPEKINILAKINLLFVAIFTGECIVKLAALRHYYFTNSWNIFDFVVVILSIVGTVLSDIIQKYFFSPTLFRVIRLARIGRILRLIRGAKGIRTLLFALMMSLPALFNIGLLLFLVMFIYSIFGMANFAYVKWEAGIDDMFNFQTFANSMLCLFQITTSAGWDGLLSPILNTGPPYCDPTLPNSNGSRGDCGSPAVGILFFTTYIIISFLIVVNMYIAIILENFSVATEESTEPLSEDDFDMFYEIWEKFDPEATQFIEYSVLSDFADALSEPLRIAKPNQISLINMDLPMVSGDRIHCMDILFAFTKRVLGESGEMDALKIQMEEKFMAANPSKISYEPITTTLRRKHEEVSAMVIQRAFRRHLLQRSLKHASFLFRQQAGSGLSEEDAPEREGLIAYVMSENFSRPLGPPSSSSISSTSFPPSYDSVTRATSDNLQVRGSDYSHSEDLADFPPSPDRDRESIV
Voltage-dependent L-type calcium channel subunit alpha-1C, sequence (Q13936 whole entry): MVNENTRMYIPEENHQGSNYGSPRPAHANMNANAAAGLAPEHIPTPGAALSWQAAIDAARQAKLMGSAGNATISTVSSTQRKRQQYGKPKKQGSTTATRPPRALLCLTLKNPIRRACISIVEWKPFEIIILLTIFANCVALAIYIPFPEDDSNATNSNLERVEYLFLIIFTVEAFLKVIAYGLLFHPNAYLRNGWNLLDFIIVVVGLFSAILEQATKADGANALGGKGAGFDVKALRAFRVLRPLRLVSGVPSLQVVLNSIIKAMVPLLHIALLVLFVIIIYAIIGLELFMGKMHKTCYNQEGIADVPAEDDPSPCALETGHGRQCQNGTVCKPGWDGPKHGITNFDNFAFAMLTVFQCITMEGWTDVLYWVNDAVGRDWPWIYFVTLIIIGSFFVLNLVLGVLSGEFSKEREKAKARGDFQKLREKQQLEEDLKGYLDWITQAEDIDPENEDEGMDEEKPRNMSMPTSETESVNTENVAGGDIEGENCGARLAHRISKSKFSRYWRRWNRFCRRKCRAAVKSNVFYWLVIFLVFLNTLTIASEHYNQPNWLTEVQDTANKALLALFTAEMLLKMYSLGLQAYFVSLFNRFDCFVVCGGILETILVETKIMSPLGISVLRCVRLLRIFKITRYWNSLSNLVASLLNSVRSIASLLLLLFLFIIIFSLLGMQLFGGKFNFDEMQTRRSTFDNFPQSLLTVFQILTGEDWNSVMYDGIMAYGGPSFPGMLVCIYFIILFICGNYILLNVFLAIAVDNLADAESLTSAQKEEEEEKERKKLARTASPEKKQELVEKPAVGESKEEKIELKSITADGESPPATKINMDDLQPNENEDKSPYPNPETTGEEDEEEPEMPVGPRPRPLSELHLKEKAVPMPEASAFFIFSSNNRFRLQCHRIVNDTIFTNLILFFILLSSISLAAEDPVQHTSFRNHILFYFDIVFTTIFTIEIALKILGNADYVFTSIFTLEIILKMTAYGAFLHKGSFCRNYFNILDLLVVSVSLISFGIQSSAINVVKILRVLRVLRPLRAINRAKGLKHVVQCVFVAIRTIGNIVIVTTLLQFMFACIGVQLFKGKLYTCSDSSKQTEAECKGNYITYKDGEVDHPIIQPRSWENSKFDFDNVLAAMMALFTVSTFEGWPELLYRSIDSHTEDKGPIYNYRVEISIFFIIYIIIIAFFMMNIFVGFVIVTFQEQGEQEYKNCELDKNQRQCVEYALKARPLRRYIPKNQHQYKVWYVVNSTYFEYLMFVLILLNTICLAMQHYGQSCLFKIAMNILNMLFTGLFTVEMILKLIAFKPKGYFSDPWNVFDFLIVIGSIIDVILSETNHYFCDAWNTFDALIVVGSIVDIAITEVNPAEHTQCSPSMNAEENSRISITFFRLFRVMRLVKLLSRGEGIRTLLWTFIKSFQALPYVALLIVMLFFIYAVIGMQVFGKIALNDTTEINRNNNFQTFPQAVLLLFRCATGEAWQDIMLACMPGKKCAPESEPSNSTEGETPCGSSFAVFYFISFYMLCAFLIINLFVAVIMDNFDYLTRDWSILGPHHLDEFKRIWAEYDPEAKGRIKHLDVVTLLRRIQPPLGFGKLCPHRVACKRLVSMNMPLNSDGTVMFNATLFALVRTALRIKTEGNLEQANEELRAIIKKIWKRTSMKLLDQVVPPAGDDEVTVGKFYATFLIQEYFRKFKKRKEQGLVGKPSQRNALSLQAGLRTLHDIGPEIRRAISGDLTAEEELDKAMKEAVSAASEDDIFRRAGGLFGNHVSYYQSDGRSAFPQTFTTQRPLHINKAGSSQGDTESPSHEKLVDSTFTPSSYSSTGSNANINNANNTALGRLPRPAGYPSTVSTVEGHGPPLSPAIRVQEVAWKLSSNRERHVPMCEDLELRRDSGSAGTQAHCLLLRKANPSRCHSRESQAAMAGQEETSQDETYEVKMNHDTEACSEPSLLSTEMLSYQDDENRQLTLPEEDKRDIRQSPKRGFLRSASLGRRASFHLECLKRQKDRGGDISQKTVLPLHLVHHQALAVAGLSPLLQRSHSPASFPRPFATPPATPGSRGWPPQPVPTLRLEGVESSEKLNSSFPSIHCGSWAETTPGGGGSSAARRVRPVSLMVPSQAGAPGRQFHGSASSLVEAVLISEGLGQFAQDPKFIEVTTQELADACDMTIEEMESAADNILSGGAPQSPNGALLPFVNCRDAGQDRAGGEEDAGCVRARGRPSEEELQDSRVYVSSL

INH [1]: 8.9 nM
bioavailability [2]: 5%
Vd [3]: 15.7 L/kg
EC50 [4]: 0.0103 µM
inhibition [7]: Active
inhibition [8]: Dose-Dependent Effect
half-life [9]: 2.02 h
half-life [10]: 5.06 h
Tmax [11]: 2 h
Cmax [12]: 6500 ng/mL
AUC(0-t) at 48 h [13]: 2310 ng·h/mL
AUC(0-t) at 48 h [14]: 4630 ng·h/mL
AUC(0-inf) [15]: 2330 ng·h/mL
AUC(0-inf) [16]: 4630 ng·h/mL
MRT last at 48 h [17]: 1.52 h
MRT inf [18]: 3.83 h
Structure (SMILES): O=C(Cc1cccc(Oc2ccccc2)c1)Nc1nnc(N[C@@H]2CCN(c3cccnn3)C2)s1
INH (Homo sapiens): 107 nM
inhibition (A549 [5]): Dose-Dependent Effect
inhibition at 1 µM (A549 [6]): ~100%
inhibition in vivo at 100 mg/kg (A549 [19]): 51.4%
TGI (A549 [20]): Active
IC50 [21]: 7.53 µM
INH [22]: 21.71 µM
INH [23]: > 30 µM
Activity [24]: Non-Toxic
Activity [25]: Non-Toxic
Activity [26]: Non-Toxic
Activity [27]: Non-Toxic
Activity [28]: Non-Toxic
Activity [29]: Non-Toxic
